Experimental data reported in patent publication US9180159B2, “Use of cell-permeable peptide inhibitors of the JNK signal transduction pathway for the treatment of chronic or non-chronic inflammatory digestive diseases” (Xigen Inflammation Ltd., priority 2008, dated 2015).

B1: JBD1-280: the GFP vector linked to the entire JBD (aa 1-280) (protein, UniProt Q9UQF2 1-280, looked up, fragment)
chain: MAERESGGLGGGAASPPAASPFLGLHIASPPNFRLTHDISLEEFEDEDLSEITDECGISLQCKDTLSLRPPRAGLLSAGGGGAGSRLQAEMLQMDLIDATGDTPGAEDDEEDDDEERAARRPGAGPPKAESGQEPASRGQGQSQGQSQGPGSGDTYRPKRPTTLNLFPQVPRSQDTLNNNSLGKKHSWQDRVSRSSSPLKTGEQTPPHEHICLSDELPPQSGPAPTTDRGTSTDSPCRRSTATQMAPPGGPPAAPPGGRGHSHRDRIHYQADVRLEATEE
modifications: fused to GFP

Assays:
TC-3 cells = assay: IL-1 induced pancreatic beta-cell death in TC-3 cells treated with peptides; format: cell-based; details: one single addition 1 μM, IL-1 10 ng/ml every two days
Protocol: Inhibition of IL-1 induced pancreatic beta-cell death by the D-TAT-IB1(s) peptide was analyzed. TC-3 cells were incubated as described above for 30 minutes with one single addition of the indicated peptides (1, μM), then IL-1 (10 ng/ml) was added.
Apoptotic cells were then counted after two days of incubation with IL-1 by use of Propidium Iodide and Hoechst 33342 nuclear staining. A minimum of 1,000 cells were counted for each experiment.
Long term inhibition of IL-1P induced cell-death by the D-TAT-IB1 peptide was also analyzed. TC-3 cells were incubated as above for 30 minutes with one single addition of the indicated peptides (1 μM), then IL-1 (10 ng/ml) was added, followed by addition of the cytokine every two days. Apoptotic cells were then counted after 15 days of incubation with IL-1 by use of propidium iodide and Hoechst 33342 nuclear staining. […] A minimum of 1.000 cells were counted for each experiment.

TC-3 cell cultures = assay: Cellular import and intracellular persistence of fluorescein-labeled peptides in TC-3 cells; format: cell-based; details: 1 μM
Protocol: The ability of the L- and D-enantiomeric forms of TAT and TAT-IB1(s) peptides (“TAT-IB peptides”) to enter cells was evaluated. L-TAT, D-TAT, L-TAT-IB1(s), and D-TAT-IB1(s) peptides [SEQ ID NOs: 5, 6, 9 and 12, respectively] were labeled by N-terminal addition of a glycine residue conjugated to fluorescein. Labeled peptides (1 μM) were added to TC-3 cell cultures, which were maintained as described in Example 3. At predetermined times cells were washed with PBS and fixed for five minutes in ice-cold methanol-acetone (1:1) before being examined under a fluorescence microscope. Fluorescein-labeled BSA (1 μM, 12 moles/mole BSA) was used as a control.
Little to no signal was present at 48 hours.

[1] = system: recombinant JNK1, JNK2 and JNK3; assay: Solid phase kinase assay, phosphorylation of c-Jun, ATF2 and Elk1 by recombinant JNKs; format: biochemical
Protocol: (§1) The effects of the peptides on JNKs-mediated phosphorylation of their target transcription factors were investigated in vitro. Recombinant and non activated JNK1, JNK2 and JNK3 were produced using a TRANSCRIPTION AND TRANSLATION rabbit reticulocyte lysate kit (Promega) and used in solid phase kinase assays with c-Jun, ATF2 and Elk1, either alone or fused to glutathione-S-transferase (GST), as substrates. Dose response studies were performed wherein L-TAT or L-TAT-IB1(s) peptides (0-25 μM) were mixed with the recombinant JNK1, JNK2, or JNK3 kinases in reaction buffer (20 mM Tris-acetate, 1 mM EGTA, 10 mM p-nitrophenyl-phosphate (pNPP), 5 mM sodium pyrophosphate, 10 mM p-glycerophosphate, 1 mM dithiothreitol) for 20 minutes. The kinase reactions were then initiated by the addition of 10 mM MgCl2 and 5 pCi ^33P-dATP and 1 μg of either GST-Jun (aa 1-89), GST-AFT2 (aa 1-96) or GST-ELK1 (aa 307-428). GST-fusion proteins were purchased from Stratagene (La Jolla, Calif.).
(§2) Ten μL of glutathione-agarose beads were also added to the mixture. Reaction products were then separated by SDS-PAGE on a denaturing 10% polyacrylamide gel. Gels were dried and subsequently exposed to X-ray films (Kodak). […] The ability of D-TAT, D-TAT-IB1(s) and L-TAT-IB1(s) peptides (0-250 μM dosage study) to inhibit GST-Jun (aa 1-73) phosphorylation by recombinant JNK1, JNK2, and JNK3 by were analyzed as described above. Overall, D-TAT-IB1(s) peptide decreased JNK-mediated phosphorylation of c-Jun, but at levels approximately 10-20 fold less efficiently than L-TAT-IB1(s).

JNK3 = target: T1, JNK3 (Homo sapiens, UniProt P53779); assay: Solid phase kinase assay, JNK3 phosphorylation of Elk1; format: biochemical; details: dose response 0-25 μM
T1 construct: host or cells: cell-free: rabbit reticulocyte lysate, in vitro transcription and translation
Protocol: as §1
as §2, with “Overall, D-TAT-IB1(s) peptide decreased JNK-mediated phosphorylation of c-Jun, but at levels approximately 10-20 fold less efficiently than L-TAT-IB1(s).” left out

[2] = system: JNKs from UV-light irradiated HeLa cells or IL-1 treated PTC cells; assay: c-Jun phosphorylation by activated JNKs pulled down with GST-Jun from stressed cells; format: biochemical; details: 25 μM peptide
Protocol: The effects of the L-TAT or L-TAT-IB1(s) peptides as defined herein on JNKs activated by stressful stimuli were evaluated using GST-Jun to pull down JNKs from UV-light irradiated HeLa cells or IL-1 treated PTC cells. PTC cells were cultured as described above. HeLa cells were cultured in DMEM medium supplemented with 10% Fetal Calf Serum, 100 μg/mL Streptomycin, 100 units/ml Penicillin and 2 mM Glutamine. One hour prior to being used for cell extract preparation, PTC cells were activated with IL-1 as described above, whereas HeLa cells were activated by UV-light (20 J/m^2). Cell extracts were prepared from control, UV-light irradiated HeLa cells and IL-1 treated TC-3 cells by scraping the cell cultures in lysis buffer (20 mM Tris-acetate, 1 mM EGTA, 1% Triton X-100, 10 mM p-nitrophenyl-phosphate, 5 mM sodium pyrophosphate, 10 mMP-glycerophosphate, 1 mM dithiothreitol). Debris were removed by centrifugation for five minutes at 15,000 rpm in an SS-34 Beckman rotor. One-hundred μg extracts were incubated for one hour at room temperature with one μg GST-jun (amino acids 1-89) and 10 μL of glutathione-agarose beads (Sigma). Following four washes with the scraping buffer, the beads were resuspended in the same buffer supplemented with L-TAT or L-TAT-IB1(s) peptides (25 μM) for 20 minutes. […]

AP-1 DNA binding complex = assay: Gel retardation assay with AP-1 probe, HeLa cell nuclear extracts; format: cell-based; details: in the presence of TNF-alpha, peptide added 30 minutes before
[3] = system: JNK mediated activation of c-Jun in HeLa cells; assay: GAL4-Jun luciferase reporter assay in HeLa cells with MKK4/MKK7 co-transfection; format: cell-based; details: 1 μM peptide, 16 hours
Description: To determine whether the cell-permeable peptides as defined herein could block JNK signaling in vivo, we used a heterologous GAL4 system. HeLa cells, cultured as described above, were co-transfected with the 5×GAL-LUC reporter vector together with the GAL-Jun expression construct (Stratagene) comprising the activation domain of c-Jun (amino acids 1-89) linked to the GAL4 DNA-binding domain. Activation of JNK was achieved by the co-transfection of vectors expressing the directly upstream kinases MKK4 and MKK7 (see Whitmarsh et al, Science 285: 1573 (1999)). Briefly, 3×10^5 cells were transfected with the plasmids in 3.5-cm dishes using DOTAP (Boehringer Mannheim) following instructions from the manufacturer. For experiments involving GAL-Jun, 20 ng of the plasmid was transfected with 1 μg of the reporter plasmid pFR-Luc (Stratagene) and 0.5 μg of either MKK4 or MKK7 expressing plasmids. Three hours following transfection, cell media were changed and TAT and TAT-IB1(s) peptides (1 μM) were added. The luciferase activities were measured 16 hours later using the “Dual Reporter System” from Promega after normalization to protein content. […] Because HeLa cells express JNK1 and JNK2 isoforms but not JNK3, we transfected cells with JNK3.

[4] = system: Insulin producing TC-3 cells; details: previously shown (Ammendrup et al.); cited from earlier work

T1 sequence (P53779 whole entry, species assumed): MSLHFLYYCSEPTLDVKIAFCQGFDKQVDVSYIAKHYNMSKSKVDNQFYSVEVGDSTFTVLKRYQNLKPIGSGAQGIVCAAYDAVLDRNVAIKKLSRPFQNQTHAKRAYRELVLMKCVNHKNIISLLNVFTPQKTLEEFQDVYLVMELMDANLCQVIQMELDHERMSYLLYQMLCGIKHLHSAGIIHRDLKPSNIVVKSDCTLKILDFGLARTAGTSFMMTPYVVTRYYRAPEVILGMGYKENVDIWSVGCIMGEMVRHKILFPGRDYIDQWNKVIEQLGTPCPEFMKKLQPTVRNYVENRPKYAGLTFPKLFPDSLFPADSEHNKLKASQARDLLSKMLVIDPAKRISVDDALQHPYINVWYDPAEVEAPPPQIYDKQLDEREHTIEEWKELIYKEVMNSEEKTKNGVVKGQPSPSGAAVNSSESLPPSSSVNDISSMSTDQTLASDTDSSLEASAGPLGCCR

Molecule	long term protection from IL-1 induced cell-death, 15 days (TC-3 cells)	entry into cells (TC-3 cell cultures)	inhibiting JNK family phosphorylation of their target transcription factors, overall [1]	peptide dose at which nearly complete inhibition of c-Jun, ATF2 and Elk1 phosphorylation by JNKs was observed (as low as) ([1]; dose response 0-25 μM)	inhibition of JNK3 phosphorylation of Elk1 (JNK3)	prevention of phosphorylation of c-Jun by activated JNKs [2]	formation of the AP-1 DNA binding complex (AP-1 DNA binding complex)	activation of c-Jun following MKK4 and MKK7 mediated activation of JNK (luciferase) [3]	block of IL1 induced pancreatic beta-cell apoptosis by transfection [4]
NH2-GRKKRRQRRRPPRPKRPTTLNLFPQVPRSQD-COOH (H-GRKKRRQRRRPPRPKRPTTLNLFPQVPRSQD-OH) [L-TAT-IB1(s)]	not	efficiently and rapidly (less than five minutes) entered cells	superior effects	2.5 µM	absence of TAT-IB(s) inhibition	efficiently prevented phosphorylation of c-Jun	decrease the formation of the AP-1 DNA binding complex	blocked activation of c-Jun	–
B1	–	–	–	–	–	–	–	–	blocked
